“Also recorded” adds a separate entry of the source.
Key:
FGFR3 [1] = target: FGFR3 (Homo sapiens, UniProt P22607); details: reason given for selecting the inhibitor; cited from earlier work
Fgfr3^Asn534Lys/+ mice [2] = test: Novel object recognition (NOR) in HCH mouse model; type: in vivo; details: 4 months old male Fgfr3^Asn534Lys/+ mice, daily subcutaneous 2 mg/kg for six days, p= 0.8697 vs control littermates, FIG. 3B
Experimental: FIG. 3: Learning impairment is reverse by FGFR3 tyrosine kinase inhibitor daily subcutaneous injection of BGJ398. A. Novel object location (NOL) was performed in 4 months old male animals. Discrimination index was measured 24 h after training phase to assess memory performance of Fgfr3Asn534Lys/+ and their control littermates. B. Novel object recognition (NOR) was performed in 4 months old male animals. Discrimination index was measured 24 h after training phase to assess memory performance of Fgfr3Asn534Lys/+ + BGJ398, Fgfr3Asn534Lys/+ and their control littermates. […]
(§1) We used a modified version of the NOR task as described in Glatigny et al., 2019. […] The testing room was lit with two 60-W light bulbs and behavior sessions were recorded with a camera above the testing arena (grey plastic box (60 × 40 × 32 cm)). […] The objects elicited equal levels of exploration as determined in pilot experiments and training phase. […]
The following behaviors were considered as exploration of the objects: sniffing, licking, or touching the object with the nose or with the front legs or directing the nose to the object at a distance ≤ 1 cm. Investigation was not scored if the mouse was on top of the object or completely immobile. The discrimination index was calculated as (time spent exploring the new object - time spent exploring the familiar object) / (total time spent exploring both objects). […]

Fgfr3^A385E/+ mice [3] = test: Forced swim test (FST) in CAN mouse model; type: in vivo; details: 4-month-old male Fgfr3^A385E/+ mice, daily intra-cerebro-ventricular injections for 7 days, test 1 hour after last injection, FIG. 2D
Experimental: (§2) A. Local daily intracerebroventricular injection with either BGJ398 or vehicle in 4 month-old male animals during 7 days. NOR training session occurred 1 hour after last injection B. NOR performed on groups injected with vehicle or BGJ398. Injection and NOR were performed on two independent groups with the three conditions each (Fgfr3^+/+ + vehicle, n=15; Fgfr3^A385E/+ + vehicle, n=14; Fgfr3^A385E/+ + BGJ398, n=14. C. Local daily intracerebroventricular injection with either BGJ398 or vehicle in 4 month-old male animals during 7 days. One FST testing session occurring 1 hour after last injection. Immobility duration was assessed during testing. D. FST performed on groups injected with vehicle or BGJ398. Injection and FST were performed on two independent groups with the three conditions each (Fgfr3^+/+ + vehicle, n=15; Fgfr3^A385E/+ + vehicle, n=14; Fgfr3^A385E/+ + BGJ398, n=14). *P<0.05 **P<0.01, ***P<0.001.NS Not significant by ANOVA with Tukey’s multiple comparisons post-test and Student’s unpaired t test.
(§3) BGJ398 was purchased from LC Laboratories, Woburn, MA, USA. […]
This test is based on a similar observation than the TST. […] Mice were tested for 5 min, and the time spent immobile (behavioral despair) was quantified.

Fgfr3^A385E/+ mice [4] = test: Novel object recognition (NOR) in CAN mouse model; type: in vivo; details: 4-month-old male Fgfr3^A385E/+ mice, daily intra-cerebro-ventricular injections for 7 days, compared to control littermates, FIG. 2B
Experimental: as §2, with “test. […]” for “test.”
as §1

FGFR3 [5] = target: T1, FGFR3 (Mus musculus, UniProt Q61851, A385E); test: FGFR3 overactivation in the brain of CAN mouse model; type: in vivo; details: Fgfr3^A385E/+ mice
T1 construct: from tissue; host or cells: brain (hippocampus) of Fgfr3^A385E/+ knock-in mice

Fgfr3^Asn534Lys/+ mice [6] = test: Novel object location (NOL) in HCH mouse model; type: in vivo; details: 4 months old male Fgfr3^Asn534Lys/+ mice, daily subcutaneous 2 mg/kg for six days, p= 0.9538 vs control littermates, FIG. 3A
Experimental: FIG. 3: Learning impairment is reverse by FGFR3 tyrosine kinase inhibitor daily subcutaneous injection of BGJ398. A. Novel object location (NOL) was performed in 4 months old male animals. Discrimination index was measured 24 h after training phase to assess memory performance of Fgfr3Asn534Lys/+ and their control littermates. B. Novel object recognition (NOR) was performed in 4 months old male animals. Discrimination index was measured 24 h after training phase to assess memory performance of Fgfr3Asn534Lys/+ + BGJ398, Fgfr3Asn534Lys/+ and their control littermates. NOR and NOL were performed on two independent groups of Fgfr3Asn534Lys/+ (n=12) Fgfr3Asn534Lys/+ + BGJ398 (n=14) and their controls (n=14).
as §3
For the novel object location task, all procedures were identical to the novel object recognition task except that during the testing phase, rather than presenting a novel object, mice encountered both familiar objects, with one object located in a different place in the arena. The time and frequency of exploration of the novel/relocated object is measured as an index of memory. Behavior was scored on videos by two observers blind to treatment and the total exploration time of the objects was quantified in the testing phases.

[7] = tested on: FGFR3 related Achondroplasia mouse model; details: subcutaneous injections, Komla-Ebri et al. 2016; cited from earlier work

Chain of FGFR3 (Homo sapiens, UniProt P22607) (P22607 23-806, species assumed): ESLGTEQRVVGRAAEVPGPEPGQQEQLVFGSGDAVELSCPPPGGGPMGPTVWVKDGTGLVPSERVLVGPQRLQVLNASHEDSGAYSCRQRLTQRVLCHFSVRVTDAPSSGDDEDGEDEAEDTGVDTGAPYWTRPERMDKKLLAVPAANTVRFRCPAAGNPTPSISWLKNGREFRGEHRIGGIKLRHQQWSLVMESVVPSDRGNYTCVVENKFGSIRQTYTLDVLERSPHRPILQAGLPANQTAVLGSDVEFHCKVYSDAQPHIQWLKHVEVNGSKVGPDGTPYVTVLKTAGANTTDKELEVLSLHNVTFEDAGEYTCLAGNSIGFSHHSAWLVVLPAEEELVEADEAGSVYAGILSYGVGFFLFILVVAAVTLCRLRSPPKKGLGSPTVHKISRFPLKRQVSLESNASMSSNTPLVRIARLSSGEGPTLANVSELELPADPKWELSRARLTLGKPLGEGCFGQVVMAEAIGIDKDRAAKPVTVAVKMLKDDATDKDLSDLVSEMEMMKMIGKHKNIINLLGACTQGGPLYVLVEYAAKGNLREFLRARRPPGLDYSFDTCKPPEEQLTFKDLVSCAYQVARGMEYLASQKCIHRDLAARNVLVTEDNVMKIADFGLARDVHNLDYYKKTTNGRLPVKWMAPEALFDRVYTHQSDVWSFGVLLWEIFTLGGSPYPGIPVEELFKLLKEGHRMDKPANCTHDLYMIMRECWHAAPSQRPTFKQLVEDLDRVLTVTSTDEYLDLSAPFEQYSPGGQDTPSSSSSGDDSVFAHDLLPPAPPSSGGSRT
T1 sequence (Q61851 21-801 A385E): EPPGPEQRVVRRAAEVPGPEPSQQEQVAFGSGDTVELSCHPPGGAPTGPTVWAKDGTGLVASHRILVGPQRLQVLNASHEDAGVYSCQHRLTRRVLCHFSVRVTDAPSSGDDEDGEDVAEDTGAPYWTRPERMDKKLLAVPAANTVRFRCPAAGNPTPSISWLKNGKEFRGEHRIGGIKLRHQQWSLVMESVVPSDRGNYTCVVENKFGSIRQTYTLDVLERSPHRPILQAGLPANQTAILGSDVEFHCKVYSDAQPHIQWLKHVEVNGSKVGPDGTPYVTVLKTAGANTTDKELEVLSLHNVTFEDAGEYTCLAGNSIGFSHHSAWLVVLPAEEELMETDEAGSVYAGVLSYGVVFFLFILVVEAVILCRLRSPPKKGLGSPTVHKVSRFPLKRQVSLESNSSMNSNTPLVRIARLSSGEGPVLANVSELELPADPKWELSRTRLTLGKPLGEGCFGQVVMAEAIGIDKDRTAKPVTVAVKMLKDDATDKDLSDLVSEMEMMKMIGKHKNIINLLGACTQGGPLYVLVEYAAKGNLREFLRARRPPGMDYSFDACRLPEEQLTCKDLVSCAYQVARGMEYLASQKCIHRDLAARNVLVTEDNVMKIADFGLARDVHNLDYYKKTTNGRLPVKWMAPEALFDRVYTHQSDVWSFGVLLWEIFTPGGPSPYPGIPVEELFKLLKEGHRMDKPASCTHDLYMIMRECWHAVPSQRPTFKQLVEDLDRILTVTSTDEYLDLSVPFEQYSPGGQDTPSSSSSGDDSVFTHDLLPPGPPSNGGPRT

CCN1CCN(c2ccc(Nc3cc(N(C)C(=O)Nc4c(Cl)c(OC)cc(OC)c4Cl)ncn3)cc2)CC1 [BGJ398, 3-(2,6-dichloro-3,5-dimethoxyphenyl)-1-[6-[4-(4-ethylpiperazin-1-yl)anilino]pyrimidin-4-yl]-1-methylurea]
binding specificity for FGFR3 (FGFR3 [1]): highest binding specificity for FGFR3 | episodic memory deficit (NOR), exploration of the novel object (Fgfr3^Asn534Lys/+ mice [2]): to the same levels than control littermates | coping strategy to an inescapable stress in the FST (immobility duration) (Fgfr3^A385E/+ mice [3]): reestablished the coping strategy to an inescapable stress | memory deficits in the NOR paradigm (discrimination index) (Fgfr3^A385E/+ mice [4]): reversed the memory deficits | FGFR3 overactivation in the brain (FGFR3 [5]): inhibited the FGFR3 overactivation in the brain | spatial memory deficit (NOL), exploration of the relocated object (Fgfr3^Asn534Lys/+ mice [6]): sufficient to restore the spatial (NOL) | FGFR3 over-activation [7]: abolished the FGFR3 over-activation | chondrodysplasia phenotype / skeletal anomalies [7]: rescued the chondrodysplasia phenotype; also recorded: efficacy of BGJ398 in skeletal anomalies

From patent publication US20230241061A1, “METHODS AND PHARMACEUTICAL COMPOSITIONS FOR THE TREATMENT OF FGFR3-RELATED COGNITIVE DEFICIT” (INSERM (INSTITUT NATIONAL DE LA SANTÉ ET DE LA RECHERCHE …, priority 2020, published 2023)
